{"source": "patent US12702660B2", "about": "“Method for treating cancer with an oral dosage form of an estrogen receptor-alpha inhibitor” (Eisai R&D Management Co., Ltd., priority 2019, dated 2026)", "key": {"[1]": {"experiment": "Plasma PK of capsules vs tablets in healthy human subjects, relative bioavailability", "assay_type": "in vivo", "conditions": "capsules and tablets", "method": "(§1) Blood samples were collected at the planned time points from each patient and centrifuged. The plasma portion of each sample was then transferred to a K2EDTA tube, which was then shipped to a bioanalytical lab for concentration measurement using LC-MS/MS. The concentration data were then analyzed using Phoenix® WinNonlin software to obtain PK parameters. The obtained PK parameters were further summarized using analytical software.\n(§2) Blood samples (approximately 5 mL each) were collected from human patients pre-dose and at various hourly time points post-dose. Plasma concentrations of H3B-6545 were determined using a validated high-performance liquid chromatography/tandem mass spectrometry (LC-MS/MS) method. The lower limit of quantification was 0.100 ng/mL.\nThe PK Analysis Set included subjects who received H3B-6545 drug product in capsules or tablets and had sufficient evaluable plasma concentration data to derive at least 1 primary PK parameter in each treatment. […]\nPharmacokinetic parameters of H3B-6545 were calculated using noncompartmental methods, using an appropriate model for plasma data and extravascular administration. The PK parameters included, but were not limited to, area under the curve to the time of the last quantifiable concentration (AUC0-t), maximum concentration (Cmax), and time at which the maximum concentration occurred (tmax). […]"}, "[2]": {"experiment": "Plasma PK of 450 mg capsules in fasted and fed patients, dose expansion", "assay_type": "in vivo, human", "conditions": "450 mg QD capsules; for CLss/F / AUC(0-inf) / Cmax / half-life / AUC(0-t) / Vd / Vd/F: Geometric Mean (GeoCV %); for Tlag / Tmax: Median (Min, Max); for AUC0-24 (per 1 mg of API) / AUC0-inf (per 1 mg of API) / AUC0-t (per 1 mg of API) / Cmax (per 1 mg of API): normalized from Table 13; for AUC(0-inf) / Cmax / half-life / AUC(0-t) / Vd / Vd/F / Tmax: human, plasma, oral, 450 mg; for Vd: read-out: Vss; for Vd/F: read-out: Vz/F", "method": "as §1, §2\nThe PK Analysis Set included subjects who received H3B-6545 drug product in capsules or tablets and had sufficient evaluable plasma concentration data to derive at least 1 primary PK parameter in each treatment. Plasma concentrations of H3B-6545 (as free base) were tabulated and summarized at each nominal time using descriptive statistics (number of subjects, arithmetic mean with standard deviation [SD], coefficient of variation [CV %], geometric mean, median, minimum, and maximum) as appropriate. Individual and mean (±SD) plasma concentration-time profiles were provided for each treatment.\nPharmacokinetic parameters of H3B-6545 were calculated using noncompartmental methods, using an appropriate model for plasma data and extravascular administration. The PK parameters included, but were not limited to, area under the curve to the time of the last quantifiable concentration (AUC0-t), maximum concentration (Cmax), and time at which the maximum concentration occurred (tmax). If data permitted, the area under the plasma concentration-time curve extrapolated to infinity (AUC0-inf), terminal elimination half-life (t1/2), apparent total body clearance (CL/F), total systemic clearance after oral administration at steady state (CLss/F), apparent volume of distribution during the terminal phase (Vz/F), apparent steady-state volume of distribution (Vss), accumulation ratio for Cmax (RCmax) and accumulation ratio of AUC0-24 (RAUC) were also derived.\nTable 3 details PK parameters and profiles of human patients receiving capsules prepared as in Example 1. Patients received a total equivalent dosage of 450 mg of Formula I, as identified in Table 13. Table 14 has normalized the AUC0-t, AUC0-24, AUC0-inf and Cmax PK parameters illustrated in Table 13 to plasma PK parameters per 1 mg of active pharmaceutical ingredient (API)."}, "Ki67": {"test_system": "Ki67", "experiment": "Pharmacodynamics: Ki67 levels post-treatment", "assay_type": "in vivo, human", "conditions": "across all dose levels post-treatment", "method": "Methods were used to analyze whether H3B-6545 inactivates both wild-type and mutant ERα by targeting cysteine 530 and enforcing a unique antagonist conformation. Methods: Women with locally advanced or metastatic HR+BC are treated (tx) with H3B-6545 drug product administered once daily orally by capsule over a 28 day cycle after progression on at least one hormonal therapy and at least one additional therapy/regimen. Dose escalation uses a 3+3 design with the option to backfill previously cleared doses and allows for intrapatient dose escalation. This example explored the safety, pharmacokinetics and pharmacodynamics of H3B-6545 in women with HR+BC to identify a recommended subsequent dose for testing."}, "[3]": {"test_system": "ctDNA (ESR1, PIK3CA and AKT1 mutations)", "experiment": "ctDNA mutant allele frequency monitoring (BEAMing, ddPCR) in plasma", "assay_type": "in vivo, human", "description": "Fresh plasma samples were collected at baseline (predose), cycle 1 day 15 (CID15), C2D1, C3D1 and every 8 weeks thereafter with a final sample collection at disease progression. At baseline, BEAMing digital PCR was used to evaluate hotspot mutations in ESR1, PIK3CA and AKT1. Patient specific ctDNA mutations were subsequently monitored by ddPCR. Baseline tumor biopsies were subjected to a targeted Next Generation Sequencing (NGS) panel to identify hotspot mutations.\n• H3B-6545 administered once daily orally (PO QD) over a 28-day cycle • Dose escalation using a standard 3+3 study design using dose cohorts of 100, 200, 300, 450, and 600 mg/day\nLiquid biopsy assays: 10 ml of Strek plasma was collected at the site and then processed into plasma at Sysmex Inostics. cfDNA was isolated from 2 ml of plasma for BEAMing and 3 ml for Biorad ddPCR"}}, "note": "Entries after “also recorded” stand apart in the source; their conditions may differ. Where two headings read alike, the source gives them in different places.", "data": [{"smiles": "CN(C)C(=O)/C=C/CNCCOc1ccc(/C(=C(/CC(F)(F)F)c2ccccc2)c2ccc3[nH]nc(F)c3c2)cn1", "note": "[H3B-6545, (E)-N,N-dimethyl-4-[2-[5-[(Z)-4,4,4-trifluoro-1-(3-fluoro-1H-indazol-5-yl)-2-phenylbut-1-enyl]pyridin-2-yl]oxyethylamino]but-2-enamide]", "values": [{"measurement": "tolerability", "setting": "[1]", "result": "well-tolerated"}, {"measurement": "CLss/F", "setting": "[2]; Dose Expansion-Fasted", "result": "36.7 (65.4); 18 L/h"}, {"measurement": "Tlag", "setting": "[2]; Dose Expansion-Fasted", "result": "0 (0-0); 18 h"}, {"measurement": "AUC0-24 (per 1 mg of API)", "setting": "[2]; Dose Expansion-Fasted", "result": 27.2, "unit": "ng·h/mL/mg"}, {"measurement": "AUC0-inf (per 1 mg of API)", "setting": "[2]; Dose Expansion-Fasted", "result": 36.6, "unit": "ng·h/mL/mg"}, {"measurement": "AUC0-t (per 1 mg of API)", "setting": "[2]; Dose Expansion-Fasted", "result": 27.7, "unit": "ng·h/mL/mg"}, {"measurement": "Cmax (per 1 mg of API)", "setting": "[2]; Dose Expansion-Fasted", "result": 2.4, "unit": "ng/mL/mg"}, {"measurement": "CLss/F", "setting": "[2]; Dose Expansion-Fed", "result": "20.5 (42.7); 13 L/h"}, {"measurement": "Tlag", "setting": "[2]; Dose Expansion-Fed", "result": "0 (0-0); 17 h"}, {"measurement": "AUC0-24 (per 1 mg of API)", "setting": "[2]; Dose Expansion-Fed", "result": 43.3, "unit": "ng·h/mL/mg"}, {"measurement": "AUC0-inf (per 1 mg of API)", "setting": "[2]; Dose Expansion-Fed", "result": 56.8, "unit": "ng·h/mL/mg"}, {"measurement": "AUC0-t (per 1 mg of API)", "setting": "[2]; Dose Expansion-Fed", "result": 35.8, "unit": "ng·h/mL/mg"}, {"measurement": "Cmax (per 1 mg of API)", "setting": "[2]; Dose Expansion-Fed", "result": 3.5, "unit": "ng/mL/mg"}, {"measurement": "AUC(0-inf)", "setting": "[2]; Dose Expansion-Fasted", "result": 16500, "unit": "ng·h/mL"}, {"measurement": "Cmax", "setting": "[2]; Dose Expansion-Fasted", "result": 1090, "unit": "ng/mL"}, {"measurement": "half-life", "setting": "[2]; Dose Expansion-Fasted", "result": 10.9, "unit": "h"}, {"measurement": "AUC(0-t)", "setting": "[2]; Dose Expansion-Fasted, read-out: AUC0-24", "result": 12300, "unit": "ng·h/mL"}, {"measurement": "AUC(0-t)", "setting": "[2]; Dose Expansion-Fasted, read-out: AUC0-t", "result": 12500, "unit": "ng·h/mL"}, {"measurement": "Vd", "setting": "[2]; Dose Expansion-Fasted", "result": 597, "unit": "L"}, {"measurement": "Vd/F", "setting": "[2]; Dose Expansion-Fasted", "result": 566, "unit": "L"}, {"measurement": "Tmax", "setting": "[2]; Dose Expansion-Fasted", "result": 4, "unit": "h"}, {"measurement": "AUC(0-inf)", "setting": "[2]; Dose Expansion-Fed", "result": 25500, "unit": "ng·h/mL"}, {"measurement": "Cmax", "setting": "[2]; Dose Expansion-Fed", "result": 1560, "unit": "ng/mL"}, {"measurement": "half-life", "setting": "[2]; Dose Expansion-Fed", "result": 8.83, "unit": "h"}, {"measurement": "AUC(0-t)", "setting": "[2]; Dose Expansion-Fed, read-out: AUC0-24", "result": 19500, "unit": "ng·h/mL"}, {"measurement": "AUC(0-t)", "setting": "[2]; Dose Expansion-Fed, read-out: AUC0-t", "result": 16100, "unit": "ng·h/mL"}, {"measurement": "Vd", "setting": "[2]; Dose Expansion-Fed", "result": 350, "unit": "L"}, {"measurement": "Vd/F", "setting": "[2]; Dose Expansion-Fed", "result": 279, "unit": "L"}, {"measurement": "Tmax", "setting": "[2]; Dose Expansion-Fed", "result": 6, "unit": "h"}, {"measurement": "decrease in Ki67 levels", "setting": "Ki67", "result": 50, "unit": "%"}, {"measurement": "changes in mutant allele frequencies versus response", "setting": "[3]; plasma", "result": "show correlation in response to treatment; also recorded: show correlation to clinical response"}, {"measurement": "ctDNA levels by C2D1 in patients with confirmed partial response", "setting": "[3]; serial ctDNA monitoring", "result": "undetectable"}, {"measurement": "patients with confirmed partial responses whose ctDNA levels were undetectable by C2D1", "setting": "[3]; serial ctDNA monitoring", "result": "3/3"}, {"measurement": "patients with progressive disease whose ctDNA levels increased from baseline", "setting": "[3]; serial ctDNA monitoring", "result": "3/4"}]}]}
